The term IC50 denotes the concentration that gives 50% inhibition.

The results in this text go back to patent US9839642B2, “Beta-tetrazolyl-propionic acids as metallo-beta-lactamase inhibitors” (priority 2014, dated 2017).

Assay [1] deals with Escherichia coli expressing NDM-1 (CLB30016). Briefly: Antibiotic potentiation activity: synergistic concentration (MITC95) with imipenem, growth by OD600. The format is cell-based. Conditions: 95% inhibition of bacterial growth, strain CLB30016. The procedure: (§1) Antibiotic Potentiation Activity: Determination of Synergistic Concentration
(§2) The bacterial strains tested included the clinical strains Escherichia coli expressing NDM-1 (CLB30005, CLB30016), Serratia marcescens expressing IMP-1 (CL5741), and Klebsiella pneumoniae expressing VIM-1 (IHMA599644). Inhibitor activity was measured in the presence and absence of imipenem or ceftazidime in a 384-well microplate.
(§3) The clinical strains CLB30016, CL5741, and IHMA599644 were grown on trypticase soy agar containing 5% sheep's blood. The clinical strain CLB30005 was grown on Mueller Hinton broth agar containing 8 μg/ml imipenem. The bacteria on agar plates were incubated overnight at 35° C. with ambient humidity (achieved from an open pan of water inside the incubator). The following day, individual colonies from each clinical strain were picked and resuspended in 5 ml saline to attain an OD600 of 0.14, 0.11, 0.15 and 0.13, for CLB30005, CLB30016, CL5741 and IHMA599644, respectively. These were further diluted 1:100 into 1.1×CAMHB and used to inoculate the test wells as described below.
(§4) Imipenem in 10 mM 3-(N-morpholino)propanesulfonic acid (MOPS, pH 7) was stored in single use aliquots at −80° C. Test inhibitors were dissolved in DMSO and diluted 1:50 in the assay, resulting in a final concentration range of 200 μM to 0.195 μM. On the day of the assay, 4 μl of antibiotic was added to 45 μl of bacteria followed by 1 μl of test compound and mixed by pipetting and with an orbital shaker. The concentration of antibiotic used in the assay was 1 μg/ml or 4 μg/ml. Microplates were covered and incubated at 35° C. for 22 hours to 24 hours. At the end of the incubation, absorbance was determined using a spectrophotometer. The synergistic concentration of MBLI was determined by identifying the lowest concentration of test compound in the presence of a given concentration of antibiotic that was required to inhibit 95% of the growth of the bacteria.
(§5) Representative compounds of the present invention display a synergistic effect. For example, representative compounds of EXAMPLES 1-456 were determined to restore susceptibility to imipenem at concentrations of 200 μM or less.

For assay [2], the system named is Klebsiella pneumoniae expressing VIM-1 (IHMA599644). Described as above. It is filed as cell-based. As to conditions: 95% inhibition of bacterial growth, strain IHMA599644. The procedure: as §1, §2, §3, §4, §5
Assay [3] has as its system Serratia marcescens expressing IMP-1 (CL5741). The assay is described as above. It is filed as cell-based. Conditions: 95% inhibition of bacterial growth, strain CL5741. The procedure: as §1, §2, §3, §4, §5
For the next assay, the target named is VIM-1 (Pseudomonas aeruginosa, UniProt A0A0F7KYQ8). The assay can be described thus: Enzyme activity: determination of IC50, fluorescence assay with CCF2-FA substrate. It is filed as biochemical. Conditions: enzyme 30 pM, CCF2-FA 1.25 μM, 2 hours at 25° C.; read-out: VIM1 IC50. On the procedure:
(§6) Enzyme Activity: Determination of IC50
(§7) The Class B enzyme activities were measured in the presence of a compound of the EXAMPLES as a test inhibitor in a fluorescence assay against a commercially available substrate consisting of a cephalosporin core linking 7-hydroxycoumarin to fluorescein (CCF2-FA; Life Technologies, Grand Island, N.Y.). The enzyme (NDM-1, IMP-1 or VIM-1) and the substrate were diluted in 100 mM KH2PO4 buffer (pH 7) containing 0.005% Tween-20 and 10 μM ZnSO4. In the assay, the final concentration of enzyme was 1 pM, 2 pM and 30 pM for NDM-1, IMP-1 and VIM-1, respectively, and the final concentration of CCF2-FA was 1.25 μM. The test inhibitor was dissolved in DMSO and diluted 1:50 in the assay, resulting in a final concentration range of 20 μM to 0.00063 μM. In a 384-well microplate, the test inhibitor was incubated with the metallo-β-lactamase enzyme and the substrate for 2 hours at 25° C. Fluorescence at 460 nm following excitation at 405 nm was measured. The IC50 value was determined from semi-logarithmic plots of enzyme inhibition versus inhibitor concentration, with a curve generated using a 4-parameter fit.

The target in a further assay is IMP-1 (Serratia marcescens, UniProt P52699). The assay is described as above. It is filed as biochemical. Conditions: enzyme 2 pM, CCF2-FA 1.25 μM, 2 hours at 25° C.; read-out: IMP1 IC50. On the procedure:
as §6, §7

A further assay addresses NDM-1 (Klebsiella pneumoniae, UniProt C7C422). The description is as above. The format is biochemical. As to conditions: enzyme 1 pM, CCF2-FA 1.25 μM, 2 hours at 25° C.; read-out: NDM1 IC50. On the procedure:
as §6, §7

Sequence of NDM-1 (C7C422 29-270, looked up, species assumed): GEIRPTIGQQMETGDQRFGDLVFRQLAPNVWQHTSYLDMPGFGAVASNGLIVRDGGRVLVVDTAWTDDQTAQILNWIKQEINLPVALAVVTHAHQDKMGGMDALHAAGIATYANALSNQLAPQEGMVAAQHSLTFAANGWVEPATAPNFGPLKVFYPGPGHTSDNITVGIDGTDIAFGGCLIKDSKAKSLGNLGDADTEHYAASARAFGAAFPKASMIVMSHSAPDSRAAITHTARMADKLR
Sequence of IMP-1 (P52699 19-246, looked up, species assumed): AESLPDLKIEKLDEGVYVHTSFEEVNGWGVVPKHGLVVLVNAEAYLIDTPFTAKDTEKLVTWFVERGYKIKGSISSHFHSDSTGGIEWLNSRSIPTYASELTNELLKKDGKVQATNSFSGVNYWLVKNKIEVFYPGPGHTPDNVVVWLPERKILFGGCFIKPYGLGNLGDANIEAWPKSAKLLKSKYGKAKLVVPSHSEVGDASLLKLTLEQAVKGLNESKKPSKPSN

`CCC[C@H](C(=O)O)[C@H](Cc1ccc(CN)cc1)c1nnn[nH]1` [Example 54, (S)-2-((S)-2-(4-(aminomethyl)phenyl)-1-(1H-tetrazol-5-yl)ethyl)pentanoic acid]: the “NDM1 EC30016 MITC95” value in assay [1] came to 18.8 µM. In addition, in assay [2], the “VIM1 KP599644 MITC95” value was 12.5 µM. Besides, the “IMP1 SM5741 MITC95” value in assay [3] came to 75 µM. Also, the IC50 on VIM-1 amounted to 40 nM; at IMP-1, 13000 nM; on NDM-1, 1600 nM.

As for `CCC[C@H](C(=O)O)[C@H](Cc1ccc(CN2CCNCC2)cc1)c1nnn[nH]1` [Example 55, (S)-2-((S)-2-(4-(piperazin-1-ylmethyl)phenyl)-1-(1H-tetrazol-5-yl)ethyl)pentanoic acid], the “NDM1 EC30016 MITC95” value in assay [1] is 6.2 µM. In addition, the “VIM1 KP599644 MITC95” value in assay [2] is 25 µM. The “IMP1 SM5741 MITC95” value in assay [3] was found to be 18.8 µM. Further, the IC50 on VIM-1 turned out to be 19 nM; on IMP-1 it was 810 nM; at NDM-1 it was 120 nM.

With `CC(C)C[C@H](C(=O)O)[C@H](Cc1ccc(CN)c(F)c1)c1nnn[nH]1` [Example 56, (S)-2-((S)-2-(4-(aminomethyl)-3-fluorophenyl)-1-(1H-tetrazol-5-yl)ethyl)-4-methylpentanoic acid], the “NDM1 EC30016 MITC95” value in assay [1] turned out to be 9.4 µM. Moreover, the “VIM1 KP599644 MITC95” value in assay [2] turned out to be 18.8 µM. Also, in assay [3], the “IMP1 SM5741 MITC95” value stood at 47 µM. Also, the IC50 at VIM-1 stood at 10 nM; on IMP-1 it was 1700 nM; on NDM-1, 520 nM.

Take `CCC[C@@H](C(=O)O)[C@H](Cc1ccc(-c2ccc(N3CCNCC3)nc2)cc1)c1nnn[nH]1` [Example 57, (2R)-2-[(1S)-2-[4-(6-piperazin-1-ylpyridin-3-yl)phenyl]-1-(1H-tetrazol-5-yl)ethyl]pentanoic acid]: the “NDM1 EC30016 MITC95” value in assay [1] is 200 µM. Moreover, the “VIM1 KP599644 MITC95” value in assay [2] was greater than 200 µM. In addition, in assay [3], the “IMP1 SM5741 MITC95” value is 150 µM. Also, the IC50 came out at 170 nM at VIM-1, 2800 nM at IMP-1 and 650 nM on NDM-1.

Consider `CC(C)[C@H](C(=O)O)[C@H](Cc1ccc(C2=CCNC2)cc1)c1nnn[nH]1` [Example 60, (2S,3S)-4-(4-(2,5-dihydro-1H-pyrrol-3-yl)phenyl)-2-isopropyl-3-(1H-tetrazol-5-yl)butanoic acid], for which, in assay [1], the “NDM1 EC30016 MITC95” value was 3.1 µM. Also, in assay [2], the “VIM1 KP599644 MITC95” value stood at 4.7 µM. Also, the “IMP1 SM5741 MITC95” value in assay [3] was found to be 9.4 µM. Also, the concentration for half-maximal inhibition (IC50) is 1.9 nM on VIM-1, 760 nM on IMP-1 and 56 nM at NDM-1.

As for `O=C(O)[C@@H](C1CCCC1)[C@H](Cc1ccc(C2=CCNC2)cc1)c1nnn[nH]1` [Example 61, (2S,3S)-2-cyclopentyl-4-(4-(2,5-dihydro-1H-pyrrol-3-yl)phenyl)-3-(1H-tetrazol-5-yl)butanoic acid], the “NDM1 EC30016 MITC95” value in assay [1] came out at 2.3 µM. For the same compound, the “VIM1 KP599644 MITC95” value in assay [2] was found to be 6.2 µM. For the same compound, the “IMP1 SM5741 MITC95” value in assay [3] turned out to be 3.9 µM. Moreover, the results for the half-maximal inhibitory concentration (IC50) on VIM-1, at IMP-1 and on NDM-1 were 1.9 nM, 150 nM and 32 nM, respectively.

Regarding `CC(C)[C@H](C(=O)O)[C@H](Cc1ccc(-c2cn[nH]c2)cc1)c1nnn[nH]1` [Example 62, (2S,3S)-4-(4-(1H-pyrazol-4-yl)phenyl)-2-isopropyl-3-(1H-tetrazol-5-yl)butanoic acid], in assay [1], the “NDM1 EC30016 MITC95” value was 9.4 µM. Moreover, the “VIM1 KP599644 MITC95” value in assay [2] was 18.8 µM. In assay [3], the “IMP1 SM5741 MITC95” value worked out at 6.2 µM. The values for the concentration for half-maximal inhibition (IC50) at VIM-1, on IMP-1 and on NDM-1 were 6.9 nM, 66 nM and 6.5 nM, respectively.

Take `O=C(O)[C@@H](C1CCCC1)[C@H](Cc1ccc(-c2cn[nH]c2)cc1)c1nnn[nH]1` [Example 63, (2S,3S)-4-(4-(1H-pyrazol-4-yl)phenyl)-2-cyclopentyl-3-(1H-tetrazol-5-yl)butanoic acid]: in assay [1], the “NDM1 EC30016 MITC95” value amounted to 6.2 µM. Further, the “VIM1 KP599644 MITC95” value in assay [2] stood at 18.8 µM. In addition, the “IMP1 SM5741 MITC95” value in assay [3] came to 2.0 µM. For the same compound, the IC50 was found to be 1.1 nM at VIM-1, 25 nM on IMP-1 and 4.5 nM at NDM-1.

`CC(C)[C@H](C(=O)O)[C@H](Cc1ccc(C2=CCNC2)nc1)c1nnn[nH]1` [Example 64, (2S,3S)-4-(6-(2,5-dihydro-1H-pyrrol-3-yl)pyridin-3-yl)-2-isopropyl-3-(1H-tetrazol-5-yl)butanoic acid]: in assay [1], the “NDM1 EC30016 MITC95” value is 6.2 µM. Also, in assay [2], the “VIM1 KP599644 MITC95” value was 12.5 µM. The “IMP1 SM5741 MITC95” value in assay [3] turned out to be 50 µM. Besides, the IC50 on VIM-1 is 8.4 nM; at IMP-1 it was 12000 nM; at NDM-1 it was 300 nM.

As to `CC(C)[C@H](C(=O)O)[C@H](Cc1ccc(C2=CCNC2)cn1)c1nnn[nH]1` [Example 65, (2S,3S)-4-(5-(2,5-dihydro-1H-pyrrol-3-yl)pyridin-2-yl)-2-isopropyl-3-(1H-tetrazol-5-yl)butanoic acid], the “NDM1 EC30016 MITC95” value in assay [1] was 3.1 µM. In assay [2], the “VIM1 KP599644 MITC95” value came to 12.5 µM. In addition, in assay [3], the “IMP1 SM5741 MITC95” value was 200 µM. Further, the results for the IC50 at VIM-1, on IMP-1 and on NDM-1 were 72 nM, greater than 20000 nM and 760 nM, respectively.

As for `O=C(O)[C@@H](C1CCCC1)[C@H](Cc1ccc(C2=CCNC2)cn1)c1nnn[nH]1` [Example 66, (2S,3S)-2-cyclopentyl-4-(5-(2,5-dihydro-1H-pyrrol-3-yl)pyridin-2-yl)-3-(1H-tetrazol-5-yl)butanoic acid], in assay [1], the “NDM1 EC30016 MITC95” value amounted to 4.7 µM. In assay [2], the “VIM1 KP599644 MITC95” value amounted to 12.5 µM. The “IMP1 SM5741 MITC95” value in assay [3] came to 75 µM. Also, the half-maximal inhibitory concentration (IC50) on VIM-1 was determined as 18 nM; at IMP-1, 6400 nM; on NDM-1, 370 nM.

As to `O=C(O)[C@@H](C1CCOC1)[C@H](Cc1ccc(C2=CCNC2)cc1)c1nnn[nH]1` (stereo partly drawn) [Example 67, (2R,3S)-4-(4-(2,5-dihydro-1H-pyrrol-3-yl)phenyl)-2-(tetrahydrofuran-3-yl)-3-(1H-tetrazol-5-yl)butanoic acid], the “NDM1 EC30016 MITC95” value in assay [1] came out at 12.5 µM. In addition, the “VIM1 KP599644 MITC95” value in assay [2] is 25 µM. In assay [3], the “IMP1 SM5741 MITC95” value was found to be 50 µM. Also, the IC50 on VIM-1 was 25 nM; at IMP-1, 12000 nM; on NDM-1, 890 nM.

In the case of `Cc1cc(C[C@H](c2nnn[nH]2)[C@@H](C(=O)O)C(C)C)ccc1C1=CCNC1` [Example 68, (2S,3S)-4-(4-(2,5-dihydro-1H-pyrrol-3-yl)-3-methylphenyl)-2-isopropyl-3-(1H-tetrazol-5-yl)butanoic acid], in assay [1], the “NDM1 EC30016 MITC95” value is 4.7 µM. The “VIM1 KP599644 MITC95” value in assay [2] turned out to be 6.2 µM. For the same compound, the “IMP1 SM5741 MITC95” value in assay [3] is 12.5 µM. The half-maximal inhibitory concentration (IC50) on VIM-1 is 0.79 nM; at IMP-1, 1100 nM; at NDM-1, 24 nM.

For `CC(C)[C@H](C(=O)O)[C@H](Cc1ccc(C2=CCNC2)c(F)c1)c1nnn[nH]1` [Example 69, (2S,3S)-4-(4-(2,5-dihydro-1H-pyrrol-3-yl)-3-fluorophenyl)-2-isopropyl-3-(1H-tetrazol-5-yl)butanoic acid], the “NDM1 EC30016 MITC95” value in assay [1] was 3.1 µM. The “VIM1 KP599644 MITC95” value in assay [2] worked out at 6.2 µM. In addition, the “IMP1 SM5741 MITC95” value in assay [3] worked out at 6.2 µM. In addition, the IC50 was 1.3 nM on VIM-1, 770 nM on IMP-1 and 25 nM at NDM-1.
